Target: T1, AtSUT4 (Arabidopsis thaliana, UniProt Q9FE59)
T1 sequence (Q9FE59 1-510): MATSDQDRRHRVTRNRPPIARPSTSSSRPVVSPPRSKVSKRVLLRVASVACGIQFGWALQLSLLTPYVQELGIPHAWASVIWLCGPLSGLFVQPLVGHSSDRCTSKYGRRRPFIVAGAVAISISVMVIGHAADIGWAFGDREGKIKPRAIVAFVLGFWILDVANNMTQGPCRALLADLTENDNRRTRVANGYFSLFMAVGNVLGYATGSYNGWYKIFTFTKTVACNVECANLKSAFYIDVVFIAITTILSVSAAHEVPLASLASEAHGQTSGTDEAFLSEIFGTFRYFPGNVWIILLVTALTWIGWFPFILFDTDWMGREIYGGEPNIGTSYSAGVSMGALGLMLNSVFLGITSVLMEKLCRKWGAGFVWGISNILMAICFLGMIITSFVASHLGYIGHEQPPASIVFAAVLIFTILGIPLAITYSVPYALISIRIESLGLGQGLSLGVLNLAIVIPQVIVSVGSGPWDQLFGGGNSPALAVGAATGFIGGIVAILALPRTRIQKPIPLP
Assay: inhibition of ^[…]-sucrose uptake in yeast expressing AtSUT4
Format: cell-based
Details: 3 mM ^14C-sucrose; competing non-labeled sugar at 9 mM

| SMILES | % inhibition at 9 mM |
| --- | --- |
| OC[C@H]1O[C@@H](O[C@H]2[C@H](O)[C@@H](O)C(O)O[C@@H]2CO)[C@H](O)[C@@H](O)[C@H]1O (some centres unmarked) [lactose] | uptake of sucrose by AtSUT4 was inhibited by rutinose, maltose and lactose |
| OC[C@H]1O[C@H](O[C@H]2[C@H](O)[C@@H](O)C(O)O[C@@H]2CO)[C@H](O)[C@@H](O)[C@@H]1O (some centres unmarked) [maltose] | uptake of sucrose by AtSUT4 was inhibited by rutinose, maltose and lactose |

Reference: publication PMC2806534 (Planta, 2009)
